Read-outs that look alike come from different tables or passages of the source.
How the values were obtained:
C57BL/6 J mice = assay: Locomotor activity in mice (dose-response sessions); format: in vivo, mouse; conditions: 30-min session, mean ± SEM
Protocol: Behavioral studies were conducted as previously described with minor modifications. Male C57BL/6 J mice (The Jackson Laboratory #000664, 24 mice/drug) were purchased at 8 weeks old, group housed for acclimation (3–5 per cage for 1–2 weeks) under a 12:12 light:dark cycle (07:00 local time = lights on), with ad libitum access to food and water at the NIDA IRP facilities in Baltimore, MD, USA. All experiments were approved by the NIDA IRP Animal Care and Use Committee. After acclimation to the vivarium facilities, each mouse was briefly anesthetized with isoflurane and a temperature transponder (14 × 2 mm, model IPTT-300, Bio Medic Data Systems, Inc., Seaford, DE, USA) was implanted subcutaneously (s.c.) on the back, posterior to the shoulder blades. After the implant, mice were single housed and allowed one week recovery prior to the start of experiments. […] Drugs were randomly assigned and administered s.c. as the weight of the form used at an injection volume of 0.01 mL/g body weight.
During experimental testing, mice were tested once every 1–2 weeks to avoid potential tolerance to behavioral effects of the test drugs and were tested 2–3 times in total per drug. Each test session began with a brief 5 min acclimation period to the testing arenas, followed by recording baseline body temperature using a handheld wand that was sensitive to the signals emitted from the s.c. transponder. After this, mice were injected s.c. with appropriate doses of test drug and returned to the chambers for a 30-min test session. During the dose-response sessions, locomotor activity was continuously recorded using open field chambers with photobeam arrays (Coulbourn Instruments, Holliston, MA, USA) that were modified with cylindrical inserts and custom floor panels that also allowed video recordings of each mouse to later quantify HTR activity (GoPro Hero 7 camera; 960p resolution at 120 frames per second). Videos for each mouse were analyzed post session using commercially available software used to quantify HTR as previously described.
(§1) Data analysis was performed with Prism software (version 10.1.2, GraphPad Software, Boston, MA, USA). The IC50 values from the radioligand binding assays were determined by nonlinear regression, using three independent concentration-response curves fitted to a one-site model. The Cheng-Prusoff equation was used to calculate Kᵢ values for the competing ligands. EC50 values were determined by applying nonlinear regression to concentration-response curves. Bias factors (β) were calculated based on the relative intrinsic activity approach. More detailed information can be found in the Supplementary information. Mean values for total number of HTR, change in body temperature from pre to post session (Δ°C), and total distance traveled (cm) for each drug dose were compared (p < 0.05) via Welch’s ANOVA with Dunnett’s T3 post test, comparing all doses to respective vehicle controls (0 mg/kg). Welch’s ANOVA with Dunnett’s T3 post test was also used to compare drug concentrations, but the data were compared to DOM in this case. Dose–response relationships for HTR and locomotor activities were plotted using bell-shaped curve fits, while temperature change data were plotted using four-parameter non-linear regression curve fits. The ascending phase of the HTR curve for each drug was used to determine ED50 potency values from four parameter non-linear regression fits. For combined DOM and DOAM administration, the plasma, brain tissue, and brain dialysate drug concentrations were compared using paired t-tests (p < 0.05). Ratios were compared using Holm-Sidak’s post hoc test following a repeated-measures one-way ANOVA (F (1.709, 6.835) = 70.80; p < 0.0001).
Locomotor activity and body temperature were also assessed to monitor other pharmacological effects of the drugs that may impact the HTR. […]

[1] = In vivo microdialysis (striatum) with plasma and brain levels after co-administration of DOM and DOAM; design: species or system mouse; conditions: 0.5 mg/kg s.c. each; for Dialysate concentration (striatal microdialysis) after co-administration of DOM and DOAM: dialysate collected 30 min post injection, detection limit 0.04 ng/mL; for concentration at 30 min: both sexes, C57BL/6JRj, mouse, subcutaneous, 30 min post injection, mice
Protocol: Microdialysis experiments were conducted as previously reported with minor modifications; involved procedures were approved by the Cantonal Veterinary Office Basel-Stadt, in accordance with Swiss law. Three male and two female C57BL/6JRj mice (Janvier Labs, France) aged 11–14 weeks were used. During stereotactic surgeries, a guide cannula (CMA7; CMA Microdialysis AB, Sweden) directed to the striatum was implanted at 0.6 AP, 1.8 ML and -1.5 DV from bregma and fixed with dental cement. On the day of microdialysis, a microdialysis probe (CMA7, 3-mm probe length) was inserted into the guide cannula and perfused with artificial cerebrospinal fluid (119 mM NaCl, 11 mM D-glucose, 26.2 mM NaHCO3, 2.5 mM KCl, 1.3 mM MgCl2, 1 mM NaH2PO4, and 2.5 mM CaCl2) at 1 µL/min. The dialysate was collected for 30 min before s.c. injection of a mixture of DOM and DOAM (dissolved in DMSO/Tween80/saline; 1:1:18) yielding a dose of 0.5 mg/kg body weight for each substance. The dialysate post injection was collected for 30 min followed by decapitation under isoflurane anesthesia. Plasma obtained from trunk blood and homogenates of the forebrains (0.5 g brain tissue per 1 mL ice-cold water) were prepared for LC–MS/MS analysis. One hemisphere of the brain from each mouse was fixed in 4% paraformaldehyde, sectioned, and stained with Hoechst dye (2 µg/mL for 30 min) to confirm the placement of the microdialysis probe in the striatum. After running microdialysis in one or two mice, the recoveries of the microdialysis probes were assessed by collecting dialysate for 15 min at 1 µL/min with the probe immersed in a mixture of DOM and DOAM (1 µg/mL each; in artificial cerebrospinal fluid).
as §1

mice = system: mice; design: method as in ref 20 (Halberstadt et al. 2020); conditions: ref 20 (Halberstadt et al. 2020), cited from earlier work; for HTR in mice ED50 (95% CI): i.p.
[2] = brain (forebrain homogenate), read-out: Brain tissue level after co-administration of DOM and DOAM
[3] = plasma, read-out: Plasma level after co-administration of DOM and DOAM

| SMILES | Locomotor activity (distance traveled) (C57BL/6 J mice; 0.03 mg/kg s.c.) | Locomotor activity (distance traveled) (C57BL/6 J mice; 0.1 mg/kg s.c.) | Locomotor activity (distance traveled) (C57BL/6 J mice; 0.3 mg/kg s.c.) | Locomotor activity (distance traveled) (C57BL/6 J mice; 1 mg/kg s.c.) | Locomotor activity (distance traveled) (C57BL/6 J mice; 3 mg/kg s.c.) | Locomotor activity (distance traveled) (C57BL/6 J mice; 10 mg/kg s.c.) | Locomotor activity (distance traveled) (C57BL/6 J mice; 30 mg/kg s.c.) | Dialysate concentration (striatal microdialysis) after co-administration of DOM and DOAM [1] [ng/mL] | concentration at 30 min [1, 2] [ng/g] | concentration at 30 min [1, 3] [µg/mL] | HTR in mice ED50 (95% CI) (mice) | HTR in mice Emax (mice) [total HTR count] | Locomotor activity (distance traveled) (C57BL/6 J mice; 0.01 mg/kg s.c.) |
| --- | --- | --- | --- | --- | --- | --- | --- | --- | --- | --- | --- | --- | --- |
| COc1ccc(OC)c(CC(C)N)c1.Cl (centres unmarked) [2,5-DMA, 2,5-Dimethoxyamphetamine hydrochloride] | 2,854 ± 266 cm | 2,763 ± 284 cm | 2,584 ± 157 cm | 2,630 ± 184 cm | 2,780 ± 415 cm | 1,801 ± 171 cm | 1,169 ± 214 cm |  |  |  |  |  |  |
| CCCCCc1cc(OC)c(CC(C)N)cc1OC (centres unmarked) [DOAM, 4-amyl-2,5-dimethoxyamphetamine] | 2,867 ± 167 cm | 2,677 ± 103 cm | 2,307 ± 244 cm | 2,421 ± 129 cm | 2,884 ± 249 cm | 3,433 ± 325 cm | 1,724 ± 138 cm | < 0.04 | 276 | 0.012 |  |  |  |
| CCCCc1cc(OC)c(CC(C)N)cc1OC (centres unmarked) [DOBU, 4-butyl-2,5-dimethoxyamphetamine] | 2,386 ± 181 cm | 2,342 ± 184 cm | 2,535 ± 61 cm | 3,030 ± 217 cm | 3,348 ± 297 cm | 1,167 ± 195 cm | 793 ± 154 cm |  |  |  | 1.17 mg/kg |  |  |
| CCc1cc(OC)c(CC(C)N)cc1OC (centres unmarked) [DOET, 4-ethyl-2,5-dimethoxyamphetamine] |  |  |  |  |  |  |  |  |  |  | 0.20 (0.11–0.36) mg/kg | 122 |  |
| COc1cc(CC(C)N)c(OC)cc1C (centres unmarked) [DOM, 4-methyl-2,5-dimethoxyamphetamine] | 2,696 ± 154 cm | 2,522 ± 203 cm | 3,051 ± 367 cm | 4,272 ± 215 cm | 3,556 ± 278 cm | 2,186 ± 443 cm | 606 ± 47 cm | 0.82 | 463 | 0.026 |  |  |  |
| CCCc1cc(OC)c(CC(C)N)cc1OC.Cl (centres unmarked) [DOPR, 4-propyl-2,5-dimethoxyamphetamine hydrochloride] | 2,493 ± 199 cm | 2,791 ± 131 cm | 3,680 ± 100 cm | 3,500 ± 278 cm | 1,648 ± 262 cm | 665 ± 82 cm |  |  |  |  |  |  | 2,728 ± 251 cm |

— article PMC12916490 (Molecular Psychiatry, 2025)
